In US20160257749A1, “ANTI-TIM3 ANTIBODIES AND METHODS OF USE” (Hoffmann-La Roche, Inc., priority 2014, published 2016):

Key:
RNA-polymerase II = RNA-polymerase II (Homo sapiens, UniProt P24928+P30876); conditions: read-out: KD of the complex between amanitin and RNA-polymerase II; cited from earlier work
recTIM-3 CHO cells = assay: Cytotoxic activity, sandwich format with anti-mouse Fc Fab-PE24, CellTiter-Glo; assay type: cell-based; conditions: Cricetulus griseus, 72 h, full length mouse Fcγ versions + mouse Fcγ specific Fab-PE 24 (10 μg/ml), 3 days at 37° C.
Excerpt: (§1) Rel. Inhibition [%]=(1−(Esample−Enegative control)/(Epositive control−Enegative control))*100

Pfeiffer cells [1] = assay: Cytotoxic activity, human IgG1 format with anti-human Fc Fab-PE24, CellTiter-Glo; assay type: cell-based; conditions: full length human IgG1 format + human Fcγ specific Fab-PE 24 (10 μg/ml), 5 days at 37° C.
Excerpt: as §1

RPMI-8226 cells [2] = assay: as above; assay type: cell-based; conditions: full length human IgG1 format + human Fcγ specific Fab-PE 24 (10 μg/ml), 5 days at 37° C.
Excerpt: as §1

CMK = assay: Cytotoxic activity of Fab-PE24 constructs, CellTiter-Glo; assay type: cell-based, human; conditions: 4 days at 37° C.
Experimental: (§2) Treatment ranges from 50 μg/ml to 8 μg/ml in triplicate. Cycloheximide was used as positive control.

Karpas-299 = assay: as above; assay type: cell-based, human; conditions: 4 days at 37° C.
Experimental: as §2

MOLM-13 = assay: as above; assay type: cell-based, human; conditions: 4 days at 37° C.
Experimental: as §2

RPMI-8226 = assay: as above; assay type: cell-based, human; conditions: 4 days at 37° C.
Experimental: as §2

TF-1 = assay: as above; assay type: cell-based, human; conditions: 4 days at 37° C.
Experimental: as §2

primary CD34+ AML cells = assay: Cytotoxic activity of Fab-PE24 constructs on primary AML cells from relapsed/refractory patients; assay type: cell-based, human; conditions: 3 days at 37° C.
Excerpt: CD34+ cells from peripheral blood of relapsed/refractory patients were obtained from AllCells, LLC, Alameda, Calif.
Cycloheximide was used as positive control.

Pfeiffer cells [3] = assay: Cytotoxic activity of sortase coupled Fab-PE24 constructs, CellTiter-Glo; assay type: cell-based, human
Experimental: as §2

RPMI-8226 cells [4] = assay: as above; assay type: cell-based, human
Experimental: as §2

Pfeiffer cells [5] = assay: Cytotoxic activity of Fab-PE24 construct vs total IgG-Amatoxin conjugate, CellTiter-Glo; assay type: cell-based, human
Experimental: as §2

Compound	Kd (RNA-polymerase II) [µM]	IC50 (recTIM-3 CHO cells) [µM]	Pfeiffer cells Max. killing (Pfeiffer cells [1])	RPMI-8226 cells Max. killing (RPMI-8226 cells [2])	CMK Max. killing (CMK) [%]	Karpas-299 Max. killing (Karpas-299) [%]	MOLM-13 Max. killing (MOLM-13) [%]	RPMI-8226 Max. killing (RPMI-8226) [%]	TF-1 Max. killing (TF-1) [%]	D1; AML CD34+ PB0136 cells Max. killing (primary CD34+ AML cells)	D2; AML CD34+ PB0142 cells Max. killing (primary CD34+ AML cells)	D3; AML CD34+ PB0135 cells Max. killing (primary CD34+ AML cells)	D4; AML CD34+ PB0193 cells Max. killing (primary CD34+ AML cells)	Pfeiffer cells Max. killing (Pfeiffer cells [3])	RPMI-8226 cells Max. killing (RPMI-8226 cells [4])	Pfeiffer cells Max. killing (Pfeiffer cells [5])
amanitin	0.003															
C[C@@H]1C[C@@H]([C@H](O)CC2CC(=O)NC(=O)C2)C(=O)[C@@H](C)C1 [Cycloheximide, reference compound]		0.135	100 [%]	100 [%]	100	100	100	100	100	100 [%]	100 [%]	100 [%]	100 [%]	100 [%]	100 [%]	100 [%]
